Results: patent publication US7745441B1, “Urokinase inhibitors” (Wilex AG, priority 1998, dated 2010)
Structures can show the parent of a compound that is named as a salt.

Biological target: T1, sc-urokinase (Homo sapiens, UniProt P00749)
T1 construct: purchased Ribosepharm GmbH, Haan, Germany
Assay: Inhibition of urokinase (chromogenic substrate, Dixon Ki)
Format: biochemical
Settings: Tris buffer pH 8.0, 25° C., substrate Pefachrome UK or Bz-βAla-Gly-Arg-pNA; mean of at least 3 determinations
Procedure: The Ki values were determined according to Dixon by linear regression using a computer program.

SMILES | Ki
CC(C)NC(=O)C1CCN(C(=O)C(Cc2cccc(C(=N)N)c2)NS(=O)(=O)c2c(C(C)C)cc(C(C)C)cc2C(C)C)CC1 (centres unmarked) | 4.2 µM
CNC(=O)C1CCN(C(=O)C(Cc2cccc(C(=N)N)c2)NS(=O)(=O)c2c(C(C)C)cc(C(C)C)cc2C(C)C)CC1 (centres unmarked) | 4.4 µM
N=C(N)c1cccc(C[C@H](NS(=O)(=O)c2ccc3ccccc3c2)C(=O)N2CCC(C(=O)OCc3ccccc3)CC2)c1 | 3.9 µM
CC(C)OC(=O)N1CCN(C(=O)C(Cc2cccc(C(=N)N)c2)NS(=O)(=O)c2c(C(C)C)cc(C(C)C)cc2C(C)C)CC1 (centres unmarked) | 0.79 µM
CC(C)c1cc(C(C)C)c(S(=O)(=O)NC(Cc2cccc(C(=N)N)c2)C(=O)N2CCCC(C(=O)OCc3ccccc3)C2)c(C(C)C)c1 (centres unmarked) | 1.2 µM
CC(C)c1cc(C(C)C)c(S(=O)(=O)NC(Cc2cccc(C(=N)N)c2)C(=O)N2CCCC(C(=O)NCc3ccccc3)C2)c(C(C)C)c1 (centres unmarked) | 1.5 µM
CCOC(=O)C1CCN(C(=O)[C@H](Cc2cccc(C(=N)N)c2)NS(=O)(=O)c2ccc3ccccc3c2)CC1 | 3.3 µM
CCOC(=O)N1CCN(C(=O)C(Cc2cccc(C(=N)N)c2)NS(=O)(=O)c2c(C(C)C)cc(C(C)C)cc2C(C)C)CC1 (centres unmarked) | 0.54 µM
CC(C)c1cc(C(C)C)c(S(=O)(=O)NC(Cc2cccc(C(=N)N)c2)C(=O)N2CCN(C(=O)N(C)C)CC2)c(C(C)C)c1 (centres unmarked) | 2.7 µM
CC(C)c1cc(C(C)C)c(S(=O)(=O)NC(Cc2cccc(C(=N)N)c2)C(=O)N2CCN(C(=O)OCc3ccccc3)CC2)c(C(C)C)c1 (centres unmarked) | 1.9 µM
CCOC(=O)C1CCN(C(=O)C(Cc2cccc(C(=N)N)c2)NS(=O)(=O)c2c(C(C)C)cc(C(C)C)cc2C(C)C)CC1 (centres unmarked) | 0.72 µM
CC1CCN(C(=O)C(Cc2cccc(C(=N)N)c2)NS(=O)(=O)c2c(C(C)C)cc(C(C)C)cc2C(C)C)CC1 (centres unmarked) | 2.2 µM
CCOC(=O)N1CCN(C(=O)[C@H](Cc2cccc(C(=N)N)c2)NS(=O)(=O)c2c(C(C)C)cc(C(C)C)cc2C(C)C)CC1 [N-α-2,4,6-Triisopropylphenylsulfonyl-(L)-3-amidinophenylalanine-4-ethoxycarbonyl-piperazide hydrochloride] | 0.49 µM
CC(=O)N1CCN(C(=O)C(Cc2cccc(C(=N)N)c2)NS(=O)(=O)c2c(C(C)C)cc(C(C)C)cc2C(C)C)CC1 (centres unmarked) | 3.5 µM
